The results in this text go back to patent US12630502B2, “Compounds, compositions and polymer films” (Fujifilm Manufacturing Europe B.V., priority 2020, dated 2026).

Structures can show the parent of a compound that is named as a salt.

A short description of this series: Solubility in water at 40° C. (visual or UV-spectrometry). The conditions noted are these: kept overnight, 500 ppm 4OH-TEMPO. It is filed as physicochemical.
Procedure: The solubility of the compounds of Formula (I) was determined visually or by UV-spectrometry. For each compound of Formula (I), three solutions were prepared at 40° C.: one solution at 30 wt %, one solution at 60 wt %, and one solution at 70 wt %. 500 ppm 4OH-TEMPO was included in all three solutions to prevent premature polymerisation. The solutions were kept in a water bath of 40° C. overnight and centrifuged prior inspection. UV spectra were recorded in a Cary™ 100 UV-visible spectrophotometer from Agilent Technologies using a 1 mm path length quartz cuvette.
Take `C=Cc1ccc(S(=O)(=O)[N-]S(=O)(=O)c2cccc(S(=O)(=O)[N-]S(=O)(=O)c3ccc(C=C)cc3)c2)cc1.[Li+].[Li+]` [XL-2, 1,3-[N-(ethenylphenylsulphonyl)benzenesulphonamide], dilithium salt]: the “Solubility in water at 40° C.” value is greater than 70 wt %.

`C=Cc1ccc(S(=O)(=O)NS(=O)(=O)c2ccc(C=C)cc2)cc1` [XL-B, Benzenesulphonamide, 4-ethenyl-N-[(4-ethenylphenyl)sulphonyl]-, lithium salt]: the “Solubility in water at 40° C.” value is 56 wt %.

As to “Divinylbenzenesulphonate, Sodium salt [DVBS-Na, reference compound]”, the “Solubility in water at 40° C.” value amounted to 8 wt %.

As for `C=Cc1ccc(S(=O)(=O)NS(C)(=O)=O)c(C=C)c1` [XL-D, Benzenesulphonamide, 2,4-diethenyl-N-(methylsulphonyl)-, lithium salt], the “Solubility in water at 40° C.” value is listed as greater than 70 wt %.
